In ChEMBL document CHEMBL3425435, “4,6-Diarylaminothiazines as BACE1 Inhibitors and Their Use for the Reduction of Beta-Amyloid Production” (ACS Med Chem Lett, 2015):

Molecular target: Beta-secretase 1 (Homo sapiens, UniProt P56817)
Test: Inhibition of BACE1 in human H4 cells stably transfected with APP751 containing Swedish mutation assessed as reduction in Abeta (1 to 40) and Abeta (1 to 42) production incubated for 19 hrs
Assay type: cell-based

Sequence of Beta-secretase 1 (P56817 whole entry): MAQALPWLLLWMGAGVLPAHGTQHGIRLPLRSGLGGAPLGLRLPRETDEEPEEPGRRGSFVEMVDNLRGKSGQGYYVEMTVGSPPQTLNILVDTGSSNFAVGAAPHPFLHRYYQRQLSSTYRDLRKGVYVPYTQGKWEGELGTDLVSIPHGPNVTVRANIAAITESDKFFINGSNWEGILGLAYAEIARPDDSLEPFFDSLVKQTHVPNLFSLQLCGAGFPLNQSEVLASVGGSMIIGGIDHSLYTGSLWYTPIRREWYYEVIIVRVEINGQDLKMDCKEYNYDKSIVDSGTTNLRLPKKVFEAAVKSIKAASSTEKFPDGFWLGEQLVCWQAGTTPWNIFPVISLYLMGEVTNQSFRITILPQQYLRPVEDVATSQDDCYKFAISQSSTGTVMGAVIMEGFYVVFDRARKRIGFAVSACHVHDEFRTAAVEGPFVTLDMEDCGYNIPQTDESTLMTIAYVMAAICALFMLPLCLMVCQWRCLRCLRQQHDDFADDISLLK

IC50 [nM]	Structure (SMILES)
230	Cc1noc(C)c1[C@@H]1C[C@@H](c2cccc(-c3cncnc3)c2)N=C(N)S1
200	Cc1noc(C)c1[C@@H]1C[C@@H](c2cc(-c3cncnc3)c(F)cc2F)N=C(N)S1
300	Cc1noc(C)c1[C@@H]1C[C@@H](c2cc(-c3cccc(C#N)c3)cs2)N=C(N)S1
60	CC#Cc1cncc(-c2csc([C@@H]3C[C@@H](c4c(C)noc4C)SC(N)=N3)c2)c1
22	Cc1noc(C)c1[C@@H]1C[C@@H](c2cc(NC(=O)c3ccc(Br)cn3)ccc2F)N=C(N)S1
8	Cc1noc(C)c1[C@@H]1C[C@@](C)(c2cc(-c3cncnc3)c(F)cc2F)N=C(N)S1
30	CC#Cc1cncc(-c2cc(Cl)c([C@]3(C)C[C@@H](c4c(C)noc4C)SC(N)=N3)s2)c1
110	Cc1noc(CC(C)(C)O)c1[C@@H]1C[C@@](C)(c2ccc(F)cc2F)N=C(N)S1
87	Cc1noc(C)c1[C@@H]1C[C@@](C)(c2cc(-c3cccnc3C#N)c(F)cc2F)N=C(N)S1
